Reference: ChEMBL document CHEMBL3217526, “Bioguided discovery and pharmacophore modeling of the mycotoxic indole diterpene alkaloids penitrems as breast cancer proliferation, migration, and invasion inhibitors” (Medchemcomm, 2013)

Tests used:
Caenorhabditis elegans [1] = assay: Toxicity in L1 stage Caenorhabditis elegans N2 assessed as viability and reproduction at 10 uM; assay type: organism-based; conditions: in vivo
MDA-MB-231 [2] = assay: Antimigratory activity in human MDA-MB-231 cells after 24 hrs by wound healing assay; assay type: functional, cell-based; conditions: MDA-MB-231, 24 h
Caenorhabditis elegans [3] = assay: Toxicity in L1 stage Caenorhabditis elegans N2 assessed as viability and reproduction at 50 uM; assay type: organism-based; conditions: in vivo
MCF7 = assay: Antiproliferative activity against human MCF7 cells after 72 hrs by MTT assay; assay type: functional, cell-based; conditions: MCF7, 72 h
MDA-MB-231 [4] = assay: Antiproliferative activity against human MDA-MB-231 cells after 72 hrs by MTT assay; assay type: functional, cell-based; conditions: MDA-MB-231, 72 h
Caenorhabditis elegans [5] = assay: In vivo inhibition of BK channel in L1 stage Caenorhabditis elegans N2 assessed as increase in reversals at 1 uM; assay type: organism-based

For `C=C1Cc2c(Br)cc3[nH]c4c5c3c2[C@H]2[C@@H]1C[C@@H]2C(C)(C)O[C@H]5[C@@H]1CC[C@@]2(O)[C@@]35O[C@@H]3[C@@H](O)[C@@H](C(=C)C)O[C@H]5CC[C@]2(C)[C@]41C`, the Activity (Caenorhabditis elegans [1]) was “Non-toxic”, the IC50 (MDA-MB-231 [2]) was 30.3 µM and the Activity (Caenorhabditis elegans [3]) was “Non-toxic”. For the same compound, the IC50 (MCF7) was 19.3 µM and the IC50 (MDA-MB-231 [4]) was 18.8 µM.
In the case of `C=C(C)[C@H]1O[C@H]2CC[C@@]3(C)[C@@](O)(CC[C@H]4[C@@H]5OC(C)(C)[C@H]6C[C@@H]7C(=C)Cc8c(Br)cc9[nH]c(c5c9c8[C@@]76O)[C@@]43C)[C@]23O[C@@H]3[C@H]1O`, the Activity (Caenorhabditis elegans [1]) is reported as “Non-toxic”, the IC50 (MDA-MB-231 [2]) is reported as 9.6 µM and the Activity (Caenorhabditis elegans [3]) is reported as “Non-toxic”. For the same compound, the IC50 (MCF7) was 16.7 µM, the Activity (Caenorhabditis elegans [5]) was “Toxic” and the IC50 (MDA-MB-231 [4]) was 8.5 µM.
With `CC(C)=CCC[C@]1(C)[C@@H](O)CC[C@@]2(C)[C@H]1CC[C@H]1Cc3c([nH]c4ccccc34)[C@@]12C` [EMINDOLE SB] the Activity (Caenorhabditis elegans [1]) was “Non-toxic”, the IC50 (MDA-MB-231 [2]) was 19 µM and the Activity (Caenorhabditis elegans [3]) was “Non-toxic”. For the same compound, the IC50 (MCF7) was 10.1 µM, the Activity (Caenorhabditis elegans [5]) was “Non-toxic” and the IC50 (MDA-MB-231 [4]) was 21.3 µM.
For `CC(C)(O)[C@@H]1CC[C@]2(C)[C@H](CC[C@@]3(C)[C@H]2CC[C@H]2Cc4c([nH]c5ccccc45)[C@@]23C)O1` [PASPALINE], the Activity (Caenorhabditis elegans [1]) was “Non-toxic”, the IC50 (MDA-MB-231 [2]) was 7.6 µM and the Activity (Caenorhabditis elegans [3]) was “Non-toxic”. The IC50 (MCF7) was 12.8 µM and the IC50 (MDA-MB-231 [4]) was 12.4 µM.
